# From ChEMBL document CHEMBL1144405, “Synthesis and cellular studies of nonaggregated water-soluble phthalocyanines” (J Med Chem, 2005)
# Key:
# V79 = assay: Percent of cell viability for the compound was measured in hamster V79 cells; assay type: functional, Cricetulus griseus
# HEp-2 [1] = assay: Inhibitory concentration was measured against human HEp2 cells; upon exposure to light (1 J/cm**2); assay type: functional, cell-based; details: HEp-2, light or radiation study
# HEp2 (human) = assay: Inhibitory concentration was measured against human HEp2 cells; upon exposure to light (1 J/cm**2); details: HEp2, light or radiation study
# HEp-2 [2] = assay: Percent of cell viability for the compound was measured in human HEp2 cells; assay type: functional
smiles,measurement,setting,value
O=C([O-])c1cc(Oc2cc3c(cc2Oc2cc(C(=O)[O-])cc(C(=O)O)c2)-c2nc-3nc3[nH]c(nc4nc(nc5[nH]c(n2)c2cc(Oc6cc(C(=O)[O-])cc(C(=O)[O-])c6)c(Oc6cc(C(=O)[O-])cc(C(=O)O)c6)cc52)-c2cc(Oc5cc(C(=O)[O-])cc(C(=O)O)c5)c(Oc5cc(C(=O)[O-])cc(C(=O)O)c5)cc2-4)c2cc(Oc4cc(C(=O)[O-])cc(C(=O)O)c4)c(Oc4cc(C(=O)[O-])cc(C(=O)[O-])c4)cc32)cc(C(=O)[O-])c1.[Na+].[Na+].[Na+].[Na+].[Na+].[Na+].[Na+].[Na+].[Na+].[Zn+2],Viability,V79,80%
same,IC50,HEp-2 [1],4.5 µM
same,IC50,HEp2 (human),4.5 µM
same,Viability,HEp-2 [2],80%
O=C(O)c1cc(Oc2cc3c(cc2Oc2cc(C(=O)O)cc(C(=O)O)c2)-c2nc-3nc3[n-]c(nc4nc(nc5[n-]c(n2)c2cc(Oc6cc(C(=O)O)cc(C(=O)O)c6)c(Oc6cc(C(=O)O)cc(C(=O)O)c6)cc52)-c2cc(Oc5cc(C(=O)O)cc(C(=O)O)c5)c(Oc5cc(C(=O)O)cc(C(=O)O)c5)cc2-4)c2cc(Oc4cc(C(=O)O)cc(C(=O)O)c4)c(Oc4cc(C(=O)O)cc(C(=O)O)c4)cc32)cc(C(=O)O)c1.[Zn+2],Viability,V79,> 80%
same,Viability,HEp-2 [2],80%
O=C([O-])c1cc(Oc2cc3c(cc2Oc2cc(C(=O)[O-])cc(C(=O)[O-])c2)-c2nc-3nc3[nH]c(nc4nc(nc5[nH]c(n2)c2cc(Oc6cc(C(=O)[O-])cc(C(=O)[O-])c6)c(Oc6cc(C(=O)[O-])cc(C(=O)[O-])c6)cc52)-c2cc(Oc5cc(C(=O)[O-])cc(C(=O)[O-])c5)c(Oc5cc(C(=O)[O-])cc(C(=O)[O-])c5)cc2-4)c2cc(Oc4cc(C(=O)[O-])cc(C(=O)[O-])c4)c(Oc4cc(C(=O)[O-])cc(C(=O)[O-])c4)cc32)cc(C(=O)[O-])c1.[Na+].[Na+].[Na+].[Na+].[Na+].[Na+].[Na+].[Na+].[Na+].[Na+].[Na+].[Na+].[Na+].[Na+].[Na+].[Na+].[Zn],Viability,V79,80%
same,Viability,HEp-2 [2],80%
